Reference: patent US20250270246A1, “LINCOSAMIDES AND USES THEREOF” (President and Fellows of Harvard College, priority 2022, published 2025)
Where a name gives a salt, the structure may show the parent alone. Read-outs that look alike come from different tables or passages of the source.

Experiments:
Type in all cases: cell-based
[1] = system: P. aeruginosa ATCC 27853 (HAV#009); assay: MIC by broth microdilution (CLSI), Chelex 100-treated broth; settings: HAV#009, ATCC 27853, CaMHB pre-treated with Chelex 100 ion exchange resin, 24 h
Protocol: Minimum inhibitory concentrations (MICs) were determined by the broth microdilution method following the Clinical and Laboratory Standards Institute (CLSI) guidelines. Test organisms consisted of standard reference strains from the American Type Culture Collection (ATCC; Manassa, VA, USA) and clinical isolates obtained from JMI Laboratories Inc. (North Liberty, IA, USA), Micromyx repository (MMX; Kalamazoo, MI, USA), and Massachusetts Eye and Ear Hospital (Boston, USA). Before the start of the MIC experiment, standard and test compound stock solutions were prepared in dimethyl sulfoxide (DMSO, Aldrich D2650) at a stock concentration of 2,560 μg/mL. The compound concentration range typically employed for each experiment was 64-0.06 μg/mL (2.5% final DMSO concentration). Iboxamycin was used as a comparator in all experiments. All bacterial strains were sub-cultured on blood agar plates (tryptic soy agar with 5% sheep blood, Hardy Diagnostics) and incubated overnight at 35° C. Organisms were suspended in cation-adjusted Mueller-Hinton broth (CaMHB, BD 212322) and optical density was adjusted to 0.5 McFarland standard. Suspensions were further diluted to obtain a final inoculum of 5×10^5 CFU/mL for broth microdilution experiments. The minimum concentration of compound required to inhibit visible bacterial growth after 24 h of incubation was recorded as the MIC in μg/mL. MICs for P. aeruginosa were recorded in cation-adjusted Mueller-Hinton broth which had been pre-treated with Chelex 100 ion exchange resin according to procedures reported in Ito et al. Antimicrob Agents Chemother (2016) 60 (12), 7396-7401.

[2] = system: S. aureus MMX 3035; assay: MIC by broth microdilution (CLSI); settings: for MIC: Staphylococcus aureus, MMX3035, 24 h, read-out: MIC S. aureus MMX 3035
Outline: (§1)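 Broth microdilution per CLSI in cation-adjusted Mueller-Hinton broth, inoculum 5×10^5 CFU/mL, compounds 64-0.06 μg/mL with 2.5% final DMSO. The MIC is the lowest concentration preventing visible growth after 24 h, in μg/mL. For P. aeruginosa the broth was pre-treated with Chelex 100 resin.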

[3] = system: E. faecalis ATCC 29212 (HAV#005); assay: MIC by broth microdilution (CLSI); settings: for MIC: Enterococcus faecalis, ATCC29212, 24 h, read-out: MIC E. faecalis ATCC 29212
Outline: as §1

[4] = system: E. coli lptD mutant; assay: MIC by broth microdilution (CLSI); settings: CaMHB, 24 h incubation; for MIC E. coli lptD mutant: lptD mutant / ΔlptD mutant, formate salt
Outline: as §1

[5] = system: E. coli ΔtolC; assay: MIC by broth microdilution (CLSI); settings: CaMHB, 24 h incubation; for MIC: Escherichia coli, 24 h, read-out: MIC E. coli ΔtolC, ΔtolC
Outline: as §1

[6] = system: E. coli ATCC 25922 (HAV#006); assay: MIC by broth microdilution (CLSI); settings: for MIC: Escherichia coli, ATCC25922, 24 h, read-out: MIC E. coli ATCC 25922
Outline: as §1

[7] = system: K. pneumoniae JMI-991193; assay: MIC by broth microdilution (CLSI); settings: for MIC: Klebsiella pneumoniae, JMI991193, 24 h, read-out: MIC K. pneumoniae JMI-991193
Outline: as §1

[8] = system: S. aureus ATCC 29213 (HAV#001); assay: MIC by broth microdilution (CLSI); settings: for MIC: Staphylococcus aureus, ATCC29213, 24 h, read-out: MIC S. aureus ATCC 29213
Outline: as §1

[9] = system: S. aureus Clinical (cfr); assay: MIC by broth microdilution (CLSI); settings: for MIC: Staphylococcus aureus, 24 h, read-out: MIC S. aureus Clinical (cfr)
Outline: as §1

[10] = system: E. coli Clinical (armA); assay: MIC by broth microdilution (CLSI); settings: for MIC: Escherichia coli, 24 h, read-out: MIC E. coli Clinical (armA)
Outline: as §1

[11] = system: E. coli HAV#038, ΔTolC; assay: MIC by broth microdilution (CLSI); settings: Escherichia coli, 24 h, read-out: MIC E. coli HAV#038, ΔTolC
Outline: as §1

[12] = system: S. aureus HAV#202, ATCC 700699; assay: MIC by broth microdilution (CLSI); settings: Staphylococcus aureus, ATCC700699, CaMHB, 24 h incubation
Outline: as §1

[13] = system: E. coli HAV#040, LptD; assay: MIC by broth microdilution (CLSI); settings: Escherichia coli, 24 h, read-out: MIC E. coli HAV#040, LptD
Outline: as §1

[14] = system: E. faecium HAV#318, VRE; clinical; assay: MIC by broth microdilution (CLSI); settings: Enterococcus faecium, CaMHB, 24 h incubation, read-out: MIC E. faecium HAV#318, VRE
Outline: as §1

[15] = system: S. aureus HAV#016, MRSA; assay: MIC by broth microdilution (CLSI); settings: Staphylococcus aureus, CaMHB, 24 h incubation
Outline: as §1

[16] = system: S. pneumoniae HAV#003, ATCC 49619; assay: MIC by broth microdilution (CLSI); settings: Streptococcus pneumoniae, ATCC49619, CaMHB, 24 h incubation
Outline: as §1

[17] = system: S. pyogenes HAV#004, ATCC 19615; assay: MIC by broth microdilution (CLSI); settings: Streptococcus pyogenes, ATCC19615, CaMHB, 24 h incubation
Outline: as §1

[18] = system: K. oxytoca HAV#450; Clinical; assay: MIC by broth microdilution (CLSI); settings: Klebsiella oxytoca, CaMHB, 24 h incubation, read-out: MIC K. oxytoca HAV#450
Outline: as §1

[19] = system: S. pneumoniae c-ermB; assay: MIC by broth microdilution (CLSI); settings: Streptococcus pneumoniae, 24 h, read-out: MIC S. pneumoniae c-ermB
Outline: as §1

[20] = system: H. influenzae ATCC 49247; assay: MIC by broth microdilution (CLSI); settings: Haemophilus influenzae, ATCC49247, 24 h, read-out: MIC H. influenzae ATCC 49247
Outline: as §1

[21] = system: A. baumannii ATCC 19606 (HAV#010); assay: MIC by broth microdilution (CLSI); settings: Acinetobacter baumannii, ATCC19606, 24 h, read-out: MIC A. baumannii ATCC 19606
Outline: as §1

[22] = system: E. faecium JMI-990536; assay: MIC by broth microdilution (CLSI); settings: Enterococcus faecium, JMI990536, 24 h, read-out: MIC E. faecium JMI-990536
Outline: as §1

[23] = MMX 3035, CaMHB, 24 h incubation
[24] = JMI-991193, CaMHB, 24 h incubation
[25] = HAV#001, ATCC 29213, CaMHB, 24 h incubation
[26] = Clinical (cfr), CaMHB, 24 h incubation
[27] = HAV#006, ATCC 25922, CaMHB, 24 h incubation

`CC(C)C[C@@H]1CCO[C@@H]2[C@H](CN[C@@H]2C(=O)N[C@@H]2C/C=C/C(CN3CCOCC3)CSC3OC2C(O)C(O)C3O)C1` (single isomer, unassigned) [FSA1608056, formate salt] was tested, and the “MIC P. aeruginosa ATCC 27853” value [1] was 32 µg/mL, the “MIC S. aureus MMX 3035” value [2, 23] was >64 µg/mL and the “MIC E. faecalis ATCC 29212” value ([3]; HAV#005, ATCC 29212, CaMHB, 24 h incubation, formate salt) was 4 µg/mL. The “MIC E. coli lptD mutant” value [4] was 4 µg/mL, the “MIC E. coli ΔtolC” value ([5]; ΔtolC) was 16 µg/mL and the “MIC E. coli ATCC 25922” value ([6]; HAV#006, ATCC 25922, CaMHB, 24 h incubation, formate salt) was 64 µg/mL. For the same molecule, the “MIC K. pneumoniae JMI-991193” value [7, 24] was >64 µg/mL, the “MIC S. aureus ATCC 29213” value [8, 25] was 4 µg/mL and the “MIC S. aureus Clinical (cfr)” value [9, 26] was >64 µg/mL. For the same molecule, the “MIC E. coli Clinical (armA)” value ([10]; Clinical (armA), CaMHB, 24 h incubation, formate salt) was 64 µg/mL.
With `CC(C)C[C@@H]1CCO[C@@H]2[C@H](CN[C@@H]2C(=O)N[C@@H]2C/C=C/C(CN3CCOCC3)CSC3OC2C(O)C(O)C3O)C1` (single isomer, unassigned) [FSA1608057, formate salt] the MIC ([1]; Pseudomonas aeruginosa, ATCC27853) was 32 µg/mL, the MIC [2, 23] was > 64 µg/mL and the MIC ([3]; HAV#005, ATCC 29212, CaMHB, 24 h incubation) was 2 µg/mL. The “MIC E. coli lptD mutant” value [4] was 32 µg/mL, the MIC [5] was 16 µg/mL and the MIC [6, 27] was > 64 µg/mL. For the same molecule, the MIC [7, 24] was > 64 µg/mL, the MIC [8, 25] was 4 µg/mL and the MIC [9, 26] was > 64 µg/mL. For the same molecule, the MIC ([10]; Clinical (armA), CaMHB, 24 h incubation) was > 64 µg/mL.
`CC(C)C[C@@H]1CCO[C@@H]2[C@H](CN[C@@H]2C(=O)N[C@@H]2CC/C=C/CS[C@H]3O[C@H]2[C@H](O)[C@H](O)[C@H]3O)C1` [FSA1503054, (4S,5aS,8S,8aR)-4-isobutyl-N-((1R,8R,9R,10R,11S,12R,E)-10,11,12-trihydroxy-13-oxa-2-thiabicyclo[7.3.1]tridec-4-en-8-yl) octahydro-2H-oxepino[2,3-c]pyrrole-8-carboxamide formate salt] showed an MIC [11] of 1 µg/mL, an MIC [6, 27] of 16 µg/mL and an MIC [12] of 8 µg/mL. For the same molecule, the MIC [13] was 4 µg/mL, the MIC [8, 25] was 0.125 µg/mL and the MIC [14] was 16 µg/mL. The MIC [15] was 0.125 µg/mL, the MIC [16] was ≤ 0.03 µg/mL and the MIC [17] was ≤ 0.03 µg/mL. The MIC [18] was 32 µg/mL.
`CC(C)C[C@@H]1CCO[C@@H]2[C@H](CN[C@@H]2C(=O)N[C@@H]2CC/C=C\CSC3OC2C(O)C(O)C3O)C1` (stereo partly drawn) [FSA1503055, (4S,5aS,8S,8aR)-4-isobutyl-N-((1R,8R,9R,10R,11S,12R,Z)-10,11,12-trihydroxy-13-oxa-2-thiabicyclo[7.3.1]tridec-4-en-8-yl) octahydro-2H-oxepino[2,3-c]pyrrole-8-carboxamide formate salt] was tested, and the MIC [11] was 16 µg/mL, the MIC [6, 27] was > 64 µg/mL and the MIC [12] was 32 µg/mL. The MIC [13] was 64 µg/mL, the MIC [8, 25] was 0.5 µg/mL and the MIC [14] was 4 µg/mL. It also gave an MIC [15] of 0.5 µg/mL, an MIC [16] of 0.25 µg/mL and an MIC [17] of 0.125 µg/mL. For the same molecule, the MIC [18] was > 64 µg/mL.
In the case of `CC(C)C[C@@H]1CCO[C@@H]2[C@H](CN[C@@H]2C(=O)N[C@@H]2CCCCCS[C@H]3O[C@H]2[C@H](O)[C@H](O)[C@H]3O)C1` [FSA1503058, (4S,5aS,8S,8aR)-4-isobutyl-N-((1R,8R,9R,10R,11S,12R)-10,11,12-trihydroxy-13-oxa-2-thiabicyclo[7.3.1]tridecan-8-yl) octahydro-2H-oxepino[2,3-c]pyrrole-8-carboxamide formate salt], the MIC [11] was 1 µg/mL, the MIC [6, 27] was 16 µg/mL and the MIC [12] was 4 µg/mL. The MIC [13] was 4 µg/mL, the MIC [8, 25] was 0.125 µg/mL and the MIC [14] was 2 µg/mL. The MIC [15] was 0.125 µg/mL, the MIC [16] was ≤ 0.03 µg/mL and the MIC [17] was ≤ 0.03 µg/mL. For the same molecule, the MIC [18] was 32 µg/mL.
In the case of `CC(C)C[C@@H]1CCO[C@@H]2[C@H](CN[C@@H]2C(=O)N[C@H]2[C@H]3O[C@H](SC[C@H](F)C/C=C\[C@H]2C)[C@H](O)[C@@H](O)[C@H]3O)C1` [FSA1609033, (4S,5aS,8S,8aR)—N-((1R,4R,8R,9R,10R,11R,12S,13R,Z)-4-fluoro-11,12,13-trihydroxy-8-methyl-14-oxa-2-thiabicyclo[8.3.1]tetradec-6-en-9-yl)-4-isobutyloctahydro-2H-oxepino[2,3-c]pyrrole-8-carboxamide formate salt], the MIC [2] was 0.25 µg/mL, the MIC [3] was ≤ 0.06 µg/mL and the MIC ([4]; Escherichia coli, 24 h, read-out: MIC E. coli lptD mutant, lptD mutant / ΔlptD mutant) was 0.125 µg/mL. The MIC [5] was ≤ 0.06 µg/mL, the MIC [6] was 1 µg/mL and the MIC [7] was 2 µg/mL. The MIC [19] was ≤ 0.03 µg/mL, the MIC [8] was ≤ 0.06 µg/mL and the MIC [9] was 0.25 µg/mL. The MIC [20] was ≤ 0.06 µg/mL, the MIC [21] was 1 µg/mL and the MIC [22] was ≤ 0.06 µg/mL. It also gave an MIC [10] of 4 µg/mL.
